Laboratory results published in patent US20090062294A1, “HETEROARYL-SUBSTITUTED UREA MODULATORS OF FATTY ACID AMIDE HYDROLASE” (priority 2007, published 2009).
Where a name gives a salt, the structure may show the parent alone.

target: T1, FAAH (Homo sapiens, UniProt O00519); assay: Assay Method 1: FAAH assay, 3H-anandamide hydrolysis in homogenate of T84 cells or SK-N-MC cells transfected with human FAAH; assay type: biochemical; conditions: average of results, > = solubility limit or highest concentration tested
T1 sequence (O00519 1-579): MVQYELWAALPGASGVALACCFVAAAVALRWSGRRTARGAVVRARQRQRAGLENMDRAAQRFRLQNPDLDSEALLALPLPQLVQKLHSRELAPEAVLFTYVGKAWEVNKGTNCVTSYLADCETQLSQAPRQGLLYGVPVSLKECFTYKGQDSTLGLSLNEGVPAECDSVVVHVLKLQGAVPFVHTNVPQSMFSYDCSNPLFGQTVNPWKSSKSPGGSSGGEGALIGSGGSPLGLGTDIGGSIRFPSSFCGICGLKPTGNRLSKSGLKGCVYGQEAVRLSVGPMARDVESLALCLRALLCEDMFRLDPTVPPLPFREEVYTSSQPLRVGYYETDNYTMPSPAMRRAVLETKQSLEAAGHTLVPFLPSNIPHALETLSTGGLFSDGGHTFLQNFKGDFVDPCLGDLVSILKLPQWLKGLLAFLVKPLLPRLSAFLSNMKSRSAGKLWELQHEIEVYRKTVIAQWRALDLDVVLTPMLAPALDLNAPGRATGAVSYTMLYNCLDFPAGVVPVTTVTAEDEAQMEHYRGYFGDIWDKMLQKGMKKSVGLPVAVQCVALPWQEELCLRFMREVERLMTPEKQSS
Procedure: A. Transfection of Cells with Human FAAH
(§1) A 10-cm tissue culture dish with a confluent monolayer of SK—N-MC cells was split 2 days (d) prior to transfection. Using sterile technique, the media was removed and the cells were detached from the dish by the addition of trypsin. One fifth of the cells were then placed onto a new 10-cm dish. Cells were grown in a 37° C. incubator with 5% CO2 in Minimal Essential Media Eagle with 10% Fetal Bovine Serum. After 2 d, cells were approximately 80% confluent. These cells were removed from the dish with trypsin and pelleted in a clinical centrifuge. The pellet was re-suspended in 400 μL complete media and transferred to an electroporation cuvette with a 0.4 cm gap between the electrodes. Supercoiled human FAAH cDNA (1 μg) was added to the cells and mixed. The voltage for the electroporation was set at 0.25 kV, and the capacitance was set at 960 μF. After electroporation, the cells were diluted into complete media (10 mL) and plated onto four 10-cm dishes. Because of the variability in the efficiency of electroporation, four different concentrations of cells were plated. The ratios used were 1:20, 1:10, and 1:5, with the remainder of the cells being added to the fourth dish. The cells were allowed to recover for 24 h before adding the selection media (complete media with 600 μg/mL G418). After 10 d, dishes were analyzed for surviving colonies of cells. Dishes with well-isolated colonies were used. Cells from individual colonies were isolated and tested.
(§2) T84 frozen cell pellets or transfected SK—N-MC cells (contents of 1×15 cm culture dishes) were homogenized in 50 mL of FAAH assay buffer (125 mM Tris, 1 mM EDTA, 0.2% Glycerol, 0.02% Triton X-100, 0.4 mM Hepes, pH 9). The assay mixture consisted of 50 μL of the cell homogenate, 10 μL of the test compound, and 40 μL of anandamide [1-^3H-ethanolamine] (^3H-AEA, Perkin-Elmer, 10.3 Ci/mmol), which was added last, for a final tracer concentration of 80 nM. The reaction mixture was incubated at rt for 1 h. During the incubation, 96-well Multiscreen filter plates (catalog number MAFCNOB50; Millipore, Bedford, Mass., USA) were loaded with 25 μL of activated charcoal (Multiscreen column loader, catalog number MACL09625, Millipore) and washed once with 100 μL of MeOH. Also during the incubation, 96-well DYNEX MicroLite plates (catalog number NL510410) were loaded with 100 μL of MicroScint40 (catalog number 6013641, Packard Bioscience, Meriden, Conn., USA). After the 1 h incubation, 60 μL of the reaction mixture were transferred to the charcoal plates, which were then assembled on top of the DYNEX plates using Centrifuge Alignment Frames (catalog number MACF09604, Millipore). The unbound labeled ethanolamine was centrifuged through to the bottom plate (5 min at 2000 rpm), which was preloaded with the scintillant, as described above. The plates were sealed and left at rt for 1 h before counting on a Hewlett Packard TopCount.
(§3) Compounds were tested in free base, hydrochloride salt, and/or trifluoroacetic acid salt forms.

SMILES | IC50 [nM]
O=C(Nc1ccon1)N1CCN(Cc2cccc(Oc3ccc(SC(F)(F)F)cc3)c2)CC1 [Example 155, N-Isoxazol-3-yl-4-(3-{4-[(trifluoromethyl)sulfanyl]phenoxy}benzyl)-piperazine-1-carboxamide] | 20
O=C(Nc1ccon1)N1CCN(Cc2cccc(Oc3ccc4c(c3)OC(F)(F)O4)c2)CC1 [Example 141, 4-{3-[(2,2-Difluoro-1,3-benzodioxol-5-yl)oxy]benzyl}-N-isoxazol-3-ylpiperazine-1-carboxamide] | 50
N#Cc1ccc(Oc2cccc(CN3CCN(C(=O)Nc4cnccn4)CC3)c2)cc1 [Example 229, 4-[3-(4-Cyano-phenoxy)-benzyl]-piperazine-1-carboxylic acid pyrazin-2-ylamide] | 200
Cc1cc(NC(=O)N2CCN(Cc3cccc(Oc4ccc(Cl)cc4)c3)CC2)n[nH]1 [Example 194, 4-[3-(4-Chlorophenoxy)benzyl]-N-(5-methyl-1H-pyrazol-3-yl)piperazine-1-carboxamide] | 220
O=C(Nc1cnccn1)N1CCN(Cc2cccc(OCc3ccccc3)c2)CC1 [Example 223, 4-[3-(Benzyloxy)benzyl]-N-pyrazin-2-ylpiperazine-1-carboxamide] | 180
O=C(Nc1ccon1)N1CCN(Cc2cc3ccccc3s2)CC1 [Example 142, 4-(1-Benzothiophen-2-ylmethyl)-N-isoxazol-3-ylpiperazine-1-carboxamide] | 2000
O=C(Nc1cnccn1)N1CCN(Cc2ccc(OCc3ccccc3)cc2)CC1 [Example 219, 4-[4-(Benzyloxy)benzyl]-N-pyrazin-2-ylpiperazine-1-carboxamide] | 230
O=C(Nc1nc(-c2ccccc2)ns1)N1CCN(Cc2ccc3c(c2)OC(F)(F)O3)CC1 [Example 2, 4-(2,2-Difluoro-benzo[1,3]dioxol-5-ylmethyl)-piperazine-1-carboxylic acid (3-phenyl-[1,2,4]thiadiazol-5-yl)-amide trifluoroacetic acid salt] | 212
O=C(Nc1ccon1)N1CCN(Cc2ccc3ccccc3n2)CC1 [Example 146, 4-Quinolin-2-ylmethyl-piperazine-1-carboxylic acid isoxazol-3-ylamide] | 3000
O=C(Nc1nn[nH]n1)N1CCN(Cc2ccc3c(c2)OCO3)CC1 [Example 180, 4-Benzo[1,3]dioxol-5-ylmethyl-piperazine-1-carboxylic acid (2H-tetrazol-5-yl)-amide] | > 10000
O=C(Nc1ccon1)N1CCN(Cc2ccc(OCc3ccccc3)cc2)CC1 [Example 135, 4-[4-(Benzyloxy)benzyl]-N-isoxazol-3-ylpiperazine-1-carboxamide] | 825
O=C(Nc1noc2ccccc12)N1CCN(Cc2ccc3cn[nH]c3c2)CC1 [Example 101, N-1,2-Benzisoxazol-3-yl-4-(1H-indazol-6-ylmethyl)piperazine-1-carboxamide] | 6300
O=C(Nc1noc2ccccc12)N1CCN(Cc2cccc(Oc3ncccn3)c2)CC1 [Example 95, 4-[3-(Pyrimidin-2-yloxy)-benzyl]-piperazine-1-carboxylic acid benzo[d]isoxazol-3-ylamide] | 2800
O=C(Nc1ccon1)N1CCN(Cc2ccc(Br)c(Br)c2)CC1 [Example 154, 4-(3,4-Dibromobenzyl)-N-isoxazol-3-ylpiperazine-1-carboxamide] | 1300

target: T2, rat FAAH (Rattus norvegicus, UniProt P97612); assay: Assay Method 2: FAAH assay, 3H-anandamide hydrolysis in homogenate of SK-N-MC cells transfected with rat FAAH; assay type: biochemical; conditions: average of results, > = solubility limit or highest concentration tested
T2 sequence (P97612 1-579): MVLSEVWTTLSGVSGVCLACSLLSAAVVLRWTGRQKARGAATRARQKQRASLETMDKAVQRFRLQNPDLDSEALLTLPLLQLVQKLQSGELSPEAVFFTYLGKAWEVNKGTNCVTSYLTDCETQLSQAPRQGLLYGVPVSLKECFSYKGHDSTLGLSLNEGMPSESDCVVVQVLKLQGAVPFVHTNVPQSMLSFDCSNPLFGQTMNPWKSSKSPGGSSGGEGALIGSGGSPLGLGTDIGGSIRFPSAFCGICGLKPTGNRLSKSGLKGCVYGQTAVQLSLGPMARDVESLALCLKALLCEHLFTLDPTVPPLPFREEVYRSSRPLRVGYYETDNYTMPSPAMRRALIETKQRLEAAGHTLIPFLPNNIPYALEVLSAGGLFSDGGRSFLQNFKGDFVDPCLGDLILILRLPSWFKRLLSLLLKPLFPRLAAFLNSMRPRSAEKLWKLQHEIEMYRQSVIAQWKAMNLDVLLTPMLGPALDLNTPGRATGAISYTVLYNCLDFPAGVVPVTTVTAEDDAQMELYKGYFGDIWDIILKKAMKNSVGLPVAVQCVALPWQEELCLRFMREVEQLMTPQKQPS
Procedure: A. Transfection of Cells with Rat FAAH
as §1, with “rat” for “human”
as §2, §3

SMILES | IC50 [nM]
O=C(Nc1ccon1)N1CCN(Cc2cccc(Oc3ccc(SC(F)(F)F)cc3)c2)CC1 [Example 155, N-Isoxazol-3-yl-4-(3-{4-[(trifluoromethyl)sulfanyl]phenoxy}benzyl)-piperazine-1-carboxamide] | 270
O=C(Nc1ccon1)N1CCN(Cc2cccc(Oc3ccc4c(c3)OC(F)(F)O4)c2)CC1 [Example 141, 4-{3-[(2,2-Difluoro-1,3-benzodioxol-5-yl)oxy]benzyl}-N-isoxazol-3-ylpiperazine-1-carboxamide] | 870
N#Cc1ccc(Oc2cccc(CN3CCN(C(=O)Nc4cnccn4)CC3)c2)cc1 [Example 229, 4-[3-(4-Cyano-phenoxy)-benzyl]-piperazine-1-carboxylic acid pyrazin-2-ylamide] | 3000
Cc1cc(NC(=O)N2CCN(Cc3cccc(Oc4ccc(Cl)cc4)c3)CC2)n[nH]1 [Example 194, 4-[3-(4-Chlorophenoxy)benzyl]-N-(5-methyl-1H-pyrazol-3-yl)piperazine-1-carboxamide] | 4000
O=C(Nc1cc[nH]n1)N1CCN(Cc2cccc(Oc3ccc(Cl)cc3)c2)CC1 [Example 53, 4-[3-(4-Chloro-phenoxy)-benzyl]-piperazine-1-carboxylic acid (1H-pyrazol-3-yl)-amide trifluoroacetic acid salt] | 30
O=C(Nc1ccon1)N1CCN(Cc2cnc3ccccc3c2)CC1 [Example 147, 4-Quinolin-3-ylmethyl-piperazine-1-carboxylic acid isoxazol-3-ylamide] | > 10000
O=C(Nc1nnn[nH]1)N1CCN(Cc2cccc(Oc3ccc(Cl)cc3)c2)CC1 [Example 57, 4-[3-(4-Chloro-phenoxy)-benzyl]-piperazine-1-carboxylic acid (1H-tetrazol-5-yl)-amide trifluoroacetic acid salt] | 167
O=C(Nc1ccc2ncccc2n1)N1CCC(Cc2ccc3ccccc3c2)CC1 [Example 17, 4-Naphthalen-2-ylmethyl-piperidine-1-carboxylic acid [1,5]naphthyridin-2-ylamide trifluoroacetic acid salt] | 517
O=C(Nc1ccon1)N1CCC(Cc2ccc(F)cc2)CC1 [Example 24, 4-(4-Fluoro-benzyl)-piperidine-1-carboxylic acid isoxazol-3-ylamide] | 4000
O=C(Nc1nnn[nH]1)N1CCN(Cc2ccc3ccccc3n2)CC1 [Example 175, 4-(Quinolin-2-ylmethyl)-N-1H-tetrazol-5-ylpiperazine-1-carboxamide] | 1000
O=C(Nc1ccc(Cl)nn1)N1CCC(Cc2ccc(F)cc2)CC1 [Example 23, 4-(4-Fluoro-benzyl)-piperidine-1-carboxylic acid (6-chloro-pyridazin-3-yl)-amide] | 5000
O=C(Nc1cccc2nsnc12)N1CCN(Cc2cccc(Oc3ccc(Cl)cc3)c2)CC1 [Example 37, 4-[3-(4-Chloro-phenoxy)-benzyl]-piperazine-1-carboxylic acid benzo[1,2,5]thiadiazol-4-ylamide trifluoroacetic acid salt] | 6
